Assay results taken from patent US20230357179A1, “RAF KINASE INHIBITORS AND METHODS OF USE THEREOF” (Deciphera Pharmaceuticals, LLC, priority 2021, published 2023).

Columns and labels:
A-Raf kinase [1] = target: T1, A-Raf kinase (Homo sapiens, UniProt P10398, Y301D/Y302D); experiment: Biochemical assay for A-Raf.1 (coupled pyruvate kinase/lactate dehydrogenase); details: read-out: ARAF.1 IC50
T1 construct: purchased Sigma
Procedure, shortened: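 A-Raf (5.55 nM) phosphorylating 30.1 nM MEK with 1 mM ATP was monitored by pyruvate kinase/lactate dehydrogenase-coupled NADH oxidation at 340 nm for 6 h at 30° C, in pH 7.5 Tris buffer with 15 mM MgCl2, 1% DMSO. Rates from 4–5 h gave percent inhibition; IC50 by four-parameter fit.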

WM3928 cells [2] = experiment: WM3928 cell proliferation assay (1), resazurin, 96-well; type: cell-based; details: inhibition of cell proliferation
Procedure, shortened: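 IC50 was derived from resazurin fluorescence (ex 540, em 600 nm) after a 6–7 h dye incubation. Before that, cells had 67–72 h of compound exposure at 37 °C, 5% CO2.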

A-Raf kinase [3] = target: T1, A-Raf kinase; experiment: Biochemical assay for A-Raf.2 (coupled pyruvate kinase/lactate dehydrogenase); details: read-out: ARAF.2 IC50
Procedure: Biochemical Assay for A-Raf.2
Activity of A-Raf kinase (SEQ. ID No: 1) was determined spectroscopically using a coupled pyruvate kinase/lactate dehydrogenase assay that continuously monitors the ATP hydrolysis-dependent oxidation of NADH (e.g., Schindler et al., Science, 2000, 289, 1938-1942). Assays were conducted in 384-well plates (25 μL final volume) using 20 nM A-Raf (Eurofins), 1.5 units pyruvate kinase, 2.1 units lactate dehydrogenase, 1 mM phosphoenol pyruvate, 0.7 mM NADH, 100 nM MEK (SignalChem), and 1 mM ATP in assay buffer (100 mM Tris, pH 7.5, 15 mM MgCl2, 0.5 mM DTT, 0.1% octyl-glucoside, 0.002% (w/v) BSA, and 0.002% Triton X-100). Inhibition of A-Raf was measured by adding serial diluted test compound (final assay concentration of 1% DMSO). A decrease in absorption at 340 nm was monitored hourly for 4 h at 30° C. on a multi-mode microplate reader (BioTek). The reaction rate was calculated using the 3 to 4 h time frame. The reaction rate at each concentration of compound was converted to percent inhibition using controls (i.e., reaction with no test compound and reaction with a known inhibitor) and IC50 values were calculated by fitting a four-parameter sigmoidal curve to the data using Prism (GraphPad software).

WM3928 cells [4] = experiment: WM3928 cell proliferation assay (2), resazurin, 384-well; type: cell-based; details: inhibition of cell proliferation, 67-72 hours
Procedure: WM3928 Cell Proliferation Assay (2)
WM3928 cells (#WM3928-01-0001) are obtained from Rockland Immunochemicals Inc (Gilbertsville, PA). Briefly, cells were grown in MCDB 153 medium (Sigma, #M7403, St. Louis, MO) supplemented with 20% Leibovitz's L-15 (ThermoFisher #11415-064, Waltham, MA), 2% heat inactivated fetal bovine serum (ThermoFisher, #A3840001, Waltham, MA), 5 μg/mL Insulin (Bovine Pancreas) (Sigma, #I0516, St. Louis, MO), 1.68 mM Calcium Chloride (Sigma, #C-34006, St. Louis, MO) and 1% Penicillin/Streptomycin/L-Glutamine (ThermoFisher #10378016, Waltham, MA) at 37° C., 5% CO2, and 95% humidity. Cells are expanded until reaching 70-95% confluency at which point they are sub-cultured or harvested for assay use. Using the Beckman Coulter Echo 650, a serial dilution of test compound is dispensed into a 384-well black clear bottom plate in triplicate. Seven hundred fifty cells are added per well in 50 μL complete growth medium in the 384-well plate. Plates are incubated for 67-72 hours at 37° C., 5% CO2, and 95% humidity. At the end of the incubation, 10 μL of a 440 μM solution of resazurin (Sigma, #199303, St. Louis, MO) in PBS is added to each well of the plate and plates are incubated for an additional 3-6 hours at 37° C., 5% CO2, and 95% humidity. Plates are read on a Synergy2 or equivalent reader (Biotek, Winooski VT) using an excitation of 540 nm and an emission of 600 nm. Data is analyzed using Prism software (GraphPad, San Diego, CA) to calculate IC50 values.

T1 sequence (P10398 with tags, fused parts or gaps Y301D/Y302D): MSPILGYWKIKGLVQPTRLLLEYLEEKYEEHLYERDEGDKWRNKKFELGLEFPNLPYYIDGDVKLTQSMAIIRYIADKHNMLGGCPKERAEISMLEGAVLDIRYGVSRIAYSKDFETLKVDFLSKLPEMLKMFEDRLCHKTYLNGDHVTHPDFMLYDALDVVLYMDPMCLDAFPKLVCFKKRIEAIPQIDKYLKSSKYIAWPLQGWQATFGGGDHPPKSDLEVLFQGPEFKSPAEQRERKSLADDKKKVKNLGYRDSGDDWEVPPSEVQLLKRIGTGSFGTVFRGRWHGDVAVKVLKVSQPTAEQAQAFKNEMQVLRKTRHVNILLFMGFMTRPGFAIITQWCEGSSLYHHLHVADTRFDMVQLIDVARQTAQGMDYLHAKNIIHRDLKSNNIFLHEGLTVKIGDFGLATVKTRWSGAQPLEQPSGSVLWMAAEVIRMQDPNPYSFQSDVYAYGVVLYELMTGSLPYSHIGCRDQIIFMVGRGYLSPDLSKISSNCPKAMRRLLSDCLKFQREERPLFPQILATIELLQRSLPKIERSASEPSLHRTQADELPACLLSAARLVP

SMILES | IC50 (A-Raf kinase [1]) [nM] | IC50 (WM3928 cells [2]) [nM] | IC50 (A-Raf kinase [3]) [nM] | IC50 (WM3928 cells [4]) [nM]
COC(C)(C)CCNC(=O)Nc1cc(-c2cc(OCCO)nc(-c3ccnc4[nH]ncc34)c2)c(C)cc1F [Example 91] | > 1000 | 100 to 500 |  | 
COC(=O)Nc1cc(-c2cncc(-c3cc(NC(=O)N4CC[C@H](C(F)(F)F)C4)ccc3C)c2)ncn1 [Example 224] |  | 100 to 500 | 100 to 500 | 
CNC(=O)c1cc(-c2cncc(-c3cc(NC(=O)N4CC[C@H](C(F)(F)F)C4)ccc3C)c2)ccn1 [Example 228] |  |  | > 1000 | 100 to 500
Cc1cc(F)c(NC(=O)N[C@@H]2CC[C@H](F)C2)cc1-c1cc(OCCO)nc(-c2ccnc3[nH]ncc23)c1 [Example 88] | > 1000 | 1000 to 10000 |  | 
CNC(=O)c1cc(-c2cc(-c3cc(NC(=O)N4CC[C@H](C(F)(F)F)C4)ccc3C)ccn2)ccn1 [Example 215] |  | 500 to 1000 | > 1000 | 
Cc1cc(F)c(NC(=O)NCCC2(C)CC2)cc1-c1cc(OCCO)nc(-c2ccnc3[nH]ncc23)c1 [Example 87] | 500 to 1000 | ≤ 100 |  | 
CNC(=O)c1cc(-c2cncc(-c3cc(NC(=O)N4CC[C@H](C(F)(F)F)C4)ccc3C)c2)ncn1 [Example 220] |  |  | > 1000 | 500 to 1000
CNC(=O)c1cc(-c2cncc(-c3cc(NC(=O)N4CC[C@H](C(C)C)C4)ccc3C)c2)ncn1 [Example 226] |  |  | > 1000 | 100 to 500
COC(C)(C)CCNC(=O)Nc1cc(-c2cc(OCCO)nc(-c3ccnc4[nH]ccc34)c2)c(C)cc1F [Example 90] | > 1000 | 500 to 1000 |  | 
Cc1cc(F)c(NC(=O)N2CCC(C)(C#N)CC2)cc1-c1cc(OCCO)nc(-c2ccnc3[nH]ncc23)c1 [Example 92] | > 1000 | 1000 to 10000 |  | 
CNC(=O)c1cc(-c2cc(-c3cc(NC(=O)N4CC[C@H](C(C)C)C4)ccc3C)ccn2)ccn1 [Example 225] |  |  | > 1000 | 100 to 500
COC(=O)Nc1cc(-c2cccc(-c3cc(NC(=O)NCCC(C)(C)OC)c(F)cc3C)c2)ccn1 [Example 85] | > 1000 | 100 to 500 |  | 
Cc1cc(F)c(NC(=O)NCC[C@@H]2CCO2)cc1-c1cc(OCCO)nc(-c2ccnc3[nH]ncc23)c1 [Example 89] | > 1000 | 1000 to 10000 |  | 
Cc1ccc(NC(=O)N2CC[C@H](C)C2)cc1-c1cncc(-c2cc(NC(=O)C3CC3)ncn2)c1 [Example 227] |  |  | ≤ 100 | 100 to 500
CNC(=O)c1cc(-c2cncc(-c3cc(NC(=O)N4CC[C@H](C(C)C)C4)ccc3C)c2)ccn1 [Example 229] |  |  | > 1000 | 100 to 500
